Biological target: PIK3CA (human) (UniProt P42336)
Experiment: Cell-Based Assay

Sequence of PIK3CA (human) (P42336 whole entry, looked up): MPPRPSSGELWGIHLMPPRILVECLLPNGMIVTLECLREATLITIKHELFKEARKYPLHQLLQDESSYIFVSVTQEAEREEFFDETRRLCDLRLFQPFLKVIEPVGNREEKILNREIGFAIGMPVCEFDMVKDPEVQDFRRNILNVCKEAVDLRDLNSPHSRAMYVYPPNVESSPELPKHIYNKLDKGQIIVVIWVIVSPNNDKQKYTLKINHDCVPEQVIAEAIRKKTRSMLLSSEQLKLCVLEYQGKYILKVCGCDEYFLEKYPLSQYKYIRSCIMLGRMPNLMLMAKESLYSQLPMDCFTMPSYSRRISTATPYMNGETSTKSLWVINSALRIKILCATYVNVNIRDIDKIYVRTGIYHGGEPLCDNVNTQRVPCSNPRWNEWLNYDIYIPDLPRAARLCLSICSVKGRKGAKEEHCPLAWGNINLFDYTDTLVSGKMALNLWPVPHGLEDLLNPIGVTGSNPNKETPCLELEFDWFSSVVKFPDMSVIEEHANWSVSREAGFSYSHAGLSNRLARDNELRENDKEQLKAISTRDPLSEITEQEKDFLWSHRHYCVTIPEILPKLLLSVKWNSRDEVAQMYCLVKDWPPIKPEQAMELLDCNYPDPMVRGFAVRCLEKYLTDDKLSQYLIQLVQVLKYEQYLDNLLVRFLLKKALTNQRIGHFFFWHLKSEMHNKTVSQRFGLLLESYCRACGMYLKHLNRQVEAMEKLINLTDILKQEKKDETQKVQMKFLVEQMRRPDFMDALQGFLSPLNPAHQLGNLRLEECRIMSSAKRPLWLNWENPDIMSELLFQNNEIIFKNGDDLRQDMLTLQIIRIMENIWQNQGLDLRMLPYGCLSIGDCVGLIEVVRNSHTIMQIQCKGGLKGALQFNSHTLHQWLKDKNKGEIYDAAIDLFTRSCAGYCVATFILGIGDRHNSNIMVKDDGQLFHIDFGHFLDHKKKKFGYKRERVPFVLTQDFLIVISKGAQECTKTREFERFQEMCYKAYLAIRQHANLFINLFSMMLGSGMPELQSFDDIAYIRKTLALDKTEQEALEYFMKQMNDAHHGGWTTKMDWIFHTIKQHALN

SMILES	IC50 (t47d) [µM]	IC50 (mda-mb-361) [µM]	other results
C[C@H]1CN(C(=O)C2CN(c3cnc4ccc(-c5ccc6oc(N)nc6c5)cc4n3)C2)CCN1	0.1 to 1		
Nc1nc2cc(-c3ccc4ncc(N5CCN(C(=O)CN6CCCC6)CC5)nc4c3)ccc2o1	0.1 to 1		
CN1CCN(C(=O)C2CN(c3cnc4ccc(-c5ccc6oc(N)nc6c5)cc4n3)C2)CC1	0.1 to 1		
O=C(c1cnc2ccc(-c3cnc(Cl)c(NS(=O)(=O)c4cccc(F)c4)c3)cn12)N1CCOCC1			IC50 (pc3): 0.1 to 1 µM
Nc1nc2cc(-c3ccc4ncc(C(=O)N5CC(F)(F)C5)n4c3)ccc2o1			IC50 (pc3): 0.1 to 1 µM
CN1CC(C(=O)N2CCN(c3cnc4ccc(-c5ccc6oc(N)nc6c5)cc4n3)CC2)C1	0.1 to 1		
Nc1nc2cc(-c3ccc4ncc(N5CCCC5)nc4c3)ccc2o1	0.1 to 1		
CCOC(=O)N1CC=C(c2cnc3ccc(-c4ccc5oc(N)nc5c4)nc3n2)CC1		0.1 to 1	
CCN1CCN(C2CN(c3cnc4ccc(-c5ccc6oc(N)nc6c5)nc4c3)C2)CC1		0.1 to 1	
Nc1nc2cc(-c3ccc4ncc(-c5cnn(CCO)c5)nc4c3)ccc2o1	0.1 to 1		
C[C@H]1COCCN1c1cnc2ccc(-c3ccc4oc(N)nc4c3)nc2n1		0.1 to 1	
CC1(C)CN(C2CN(c3cnc4ccc(-c5ccc6oc(N)nc6c5)nc4n3)C2)CCN1		0.1 to 1	
Nc1nc2cc(-c3ccc4ncc(N5CCNC(=O)C5)nc4n3)ccc2o1		0.1 to 1	
COc1ncc(-c2ccc3ncn(C4CCN(C)CC4)c(=O)c3c2)cc1NS(=O)(=O)c1ccccc1			IC50 (pc3): 0.1 to 1 µM
Nc1nc2cc(-c3ccc4ncc(N5CC(N6CCN(CC7CC7)CC6)C5)nc4c3)ccc2o1	0.1 to 1		
CN1CCC(Nc2ncnc3ccc(-c4ccc5oc(N)nc5c4)nc23)CC1	0.1 to 1		
Nc1nc2cc(-c3ccc4ncc(C(=O)NCCO)n4c3)ccc2o1	0.1 to 1		
Nc1nc2cc(-c3ccc4ncc(N5CCN(C(=O)[C@@H]6CCCN6)CC5)nc4c3)ccc2o1	0.1 to 1		
CN1CC(C(=O)N2CCC(Nc3ncnc4ccc(-c5ccc6oc(N)nc6c5)cc34)CC2)C1	> 10		
CN1CCN(C2CN(c3cnc4ccc(-c5ccc6oc(N)nc6c5)nc4c3)C2)CC1		0.1 to 1	
Nc1nc2cc(-c3ccc4ncc(N5C6CCC5COC6)nc4n3)ccc2o1		0.1 to 1	
Nc1nc2cc(-c3ccc4ncc(N5CCN(CCO)CC5)nc4c3)ccc2o1	0.1 to 1		
C[C@@H]1CN(C2CN(c3cnc4ccc(-c5ccc6oc(N)nc6c5)nc4c3)C2)CCN1C		0.1 to 1	
Nc1nc2cc(-c3ccc4ncc(N5CCN(C(=O)C6(N)CC6)CC5)cc4n3)ccc2o1		0.1 to 1	
Nc1nc2cc(-c3ccc4ncc(N5CC6CCC(C5)O6)cc4n3)ccc2o1		0.1 to 1	

SMILES	IC50 (t47d) [µM]	IC50 (mda-mb-361) [µM]	other results
Nc1nc2cc(-c3ccc4ncc(N5CCOCC5)nc4n3)ccc2o1		0.1 to 1	
CNC(=O)N1CCN(c2cnc3ccc(-c4ccc5oc(N)nc5c4)cc3n2)CC1	0.1 to 1		
Nc1nc2cc(-c3ccc4ncc(N5CCNC(=O)C5)nc4c3)ccc2o1	0.1 to 1		
Nc1nc2cc(-c3ccc4ncc(C(=O)N5CC[C@@H](O)C5)n4c3)ccc2o1	0.1 to 1		
Nc1nc2cc(-c3ccc4ncc(N5CCOCC5)nc4c3)ccc2s1	0.1 to 1		
Nc1nc2cc(-c3ccc4ncc(N5CCC(N6CCOCC6)CC5)nc4c3)ccc2o1	0.1 to 1		
CC(=O)Nc1cn2cc(-c3ccc4oc(N)nc4c3)ccc2n1	0.1 to 1		IC50 (pc3): < 0.1 µM
NCC(=O)N1CCN(c2cnc3ccc(-c4ccc5oc(N)nc5c4)nc3n2)CC1		> 10	
C[C@H]1COCCN1C1CN(c2cnc3ccc(-c4ccc5oc(N)nc5c4)nc3n2)C1		> 10	
CC(C)[C@@H](N)C(=O)N1CCN(c2cnc3ccc(-c4ccc5oc(N)nc5c4)cc3n2)CC1	0.1 to 1		
Cn1c(=O)n(-c2ccc(C(C)(C)C#N)cc2)c2c3cc(-c4ccc5oc(N)nc5c4)ccc3ncc21			IC50 (pc3): < 0.1 µM
O=C(c1cnc2ccc(-c3cnc(Cl)c(NS(=O)(=O)c4ccccc4)c3)cn12)N1CCOCC1			IC50 (pc3): 0.1 to 1 µM
COc1ncc(-c2ccc3ncc(C(=O)N4CCOCC4)n3c2)cc1NS(=O)(=O)c1cccnc1			IC50 (pc3): 0.1 to 1 µM
CS(=O)(=O)N1CCN(C(=O)c2cnc3ccc(-c4ccc5oc(N)nc5c4)cn23)CC1	0.1 to 1		
CC(C)N1CCN(C(=O)C2CN(c3cnc4ccc(-c5ccc6oc(N)nc6c5)cc4n3)C2)CC1	0.1 to 1		
CC(N)C(=O)N1CCN(c2cnc3ccc(-c4ccc5oc(N)nc5c4)cc3n2)CC1 (stereo not given)	0.1 to 1		
C[C@H]1CN(C2CN(c3cnc4ccc(-c5ccc6oc(N)nc6c5)nc4c3)C2)CCN1C		0.1 to 1	
Nc1noc2cc(-c3ccc4nccc(-c5ccncc5)c4c3)ccc12	0.1 to 1		
CS(=O)(=O)CCN1CCN(c2cnc3ccc(-c4ccc5oc(N)nc5c4)cc3n2)CC1	0.1 to 1		
C[C@H]1CN(C2CN(c3cnc4ccc(-c5ccc6oc(N)nc6c5)nc4c3)C2)CCN1		0.1 to 1	
Cc1nccn1C1CN(c2cnc3ccc(-c4ccc5oc(N)nc5c4)cc3n2)C1	0.1 to 1		
Nc1nc2cc(-c3ccc4ncc(N5CC(N6CCN(CC7CC7)CC6)C5)cc4n3)ccc2o1		0.1 to 1	
Nc1nc2cc(-c3ccc4ncc(N5CC(N6CCNCC6)C5)nc4n3)ccc2o1		> 10	
COc1ncc(-c2ccc3ncn(C4CCN(C(C)C)CC4)c(=O)c3c2)cc1NS(=O)(=O)c1ccccc1			IC50 (pc3): 0.1 to 1 µM
